Laboratory results from patent publication US20260250320A1, “LIPIDATED PEPTIDE INHIBITORS OF INTERLEUKIN-23 RECEPTOR” (Janssen Pharmaceutica NV, priority 2023, published 2026).
*1 amine or outer side, *2 acyl side, *3 side chain or, on linkers, in order; H or OH if unused. Where a SMILES comes first, the peptide text is derived from it. Bridges are numbered along the chain shown (N, C = ends). Roman numbers before positions name the chains, in order. Side-chain parts run from the residue outwards. [ ]: non-standard residue; d: D form. The star is where a group is joined. ξ: configuration not given here. X19 = CC(C)(S[*:2])[C@H](N[*:3])C(=O)C[C@@H](Cc1ccc(OCCN)cc1)C(=O)[*:1]; Me3N+CH2CH2(OCH2CH2)4CO = C[N+](C)(C)CCOCCOCCOCCOCCC(=O)*; NH(CH2CH2O)2CH2CH2NMe3+ = C[N+](C)(C)CCOCCOCCN*; Trp(7-Me) = Cc1cccc2c(C[C@H](N)C(=O)O)c[nH]c12; Hexanoyl(6-NMe3+) = C[N+](C)(C)CCCCCC(=O)*; C18 diacid = O=C(O)CCCCCCCCCCCCCCCCC(=O)*; X6 = CN(CC[C@H](N[*:1])C(=O)[*:2])[*:3]; γGlu = O=C(O)[C@H](CCC(=O)[*:2])N[*:1]; 2Nal = N[C@@H](Cc1ccc2ccccc2c1)C(=O)O; AEF = NCCOc1ccc(C[C@H](N)C(=O)O)cc1; X2 = C[N+](C)(C)C[C@@H](CC(=O)O)N*; ξAEF = NCCOc1ccc(CC(N)C(=O)O)cc1; 2Pal = N[C@@H](Cc1ccccn1)C(=O)O; 3Pal = N[C@@H](Cc1cccnc1)C(=O)O; NMeK = CN[C@@H](CCCCN)C(=O)O; Pen = CC(C)(S)[C@H](N)C(=O)O; Suc = O=C(CCC(=O)[*:2])[*:1]; Thp = NC1(C(=O)O)CCOCC1; AEEA = NCCOCCOCC(=O)O; Sar = CNCC(=O)O

How the values were obtained:
[1] = molecular target: T1, IL-23R (Homo sapiens, UniProt Q5VWK5); experiment: IL23R Reporter Assay; format: cell-based; conditions: HEK293 cells containing IL-23R, IL-12Rβ1 and STAT-inducible firefly luciferase reporter; 10 ng/mL IL-23 (EC90); 5 h
T1 construct: HEK293 cells containing IL-23R, IL-12Rβ1 and a firefly luciferase reporter gene driven by a STAT-inducible promoter (Promega); host or cells: HEK293
T1 sequence (Q5VWK5 24-629): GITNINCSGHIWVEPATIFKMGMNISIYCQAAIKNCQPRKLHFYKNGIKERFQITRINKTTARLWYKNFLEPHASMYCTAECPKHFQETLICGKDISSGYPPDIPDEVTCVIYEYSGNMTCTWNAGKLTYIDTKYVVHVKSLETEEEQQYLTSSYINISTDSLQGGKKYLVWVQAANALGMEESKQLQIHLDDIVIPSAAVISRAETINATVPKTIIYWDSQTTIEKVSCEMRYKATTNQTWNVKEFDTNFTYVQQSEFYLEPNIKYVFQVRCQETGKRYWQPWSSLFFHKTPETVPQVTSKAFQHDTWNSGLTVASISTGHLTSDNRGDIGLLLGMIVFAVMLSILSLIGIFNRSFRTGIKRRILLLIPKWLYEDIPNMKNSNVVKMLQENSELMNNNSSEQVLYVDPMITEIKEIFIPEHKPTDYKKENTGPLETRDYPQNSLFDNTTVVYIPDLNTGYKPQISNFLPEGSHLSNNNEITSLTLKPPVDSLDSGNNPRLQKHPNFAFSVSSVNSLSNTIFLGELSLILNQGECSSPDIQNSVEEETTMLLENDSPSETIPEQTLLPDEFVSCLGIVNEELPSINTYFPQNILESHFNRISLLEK
In short: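 IC50 values were fitted with a 4-parameter Hill equation to luciferase signal, scaled between IL-23-only wells (0% inhibition) and 30 μM reference inhibitor (100%). The readout was a STAT-inducible reporter in IL-23R/IL-12Rβ1 HEK293 cells, stimulated with added 10 ng/mL IL-23 (EC90) for 5 h at 37° C and developed with BioGlo.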

[2] = system: IL-23-stimulated phosphorylated STAT3 in peripheral blood mononuclear cells (PBMCs); experiment: PBMC pSTAT3 Assay; format: cell-based; conditions: PBMCs from healthy donors; 30 min preincubation with peptide; IL-23 5 ng/mL for 30 min; phospho-STAT3 by MSD
In short: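 Phospho-STAT3 quantified by Meso Scale assay in lysates of PBMCs exposed to IL-23 (5 ng/mL, 30 min, 37 °C) after 30 min peptide pretreatment. Cells were cryopreserved donor PBMCs activated 4 days with anti-CD3 plus IL-1β (100 ng/mL) and starved ~4 h; IC50 reported.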

| Compound | IC50 [1] [nM] | IC50 [2] [nM] |
| --- | --- | --- |
| CC(=O)NCCCC[C@@H]1NC(=O)[C@H](Cc2c[nH]c3c(C)cccc23)NC(=O)[C@H]([C@@H](C)O)NC(=O)[C@H](CC(N)=O)NC(=O)[C@@H](NC(=O)[C@@H](CCCNC(=N)N)NC(=O)CCCCC[N+](C)(C)C)C(C)(C)SSC(C)(C)[C@@H](C(=O)N[C@@H](Cc2ccc(OCCN)cc2)C(=O)N[C@@H](Cc2ccc3ccccc3c2)C(=O)NC2(C(=O)N[C@@H](CCC(=O)O)C(=O)N[C@@H](CC(N)=O)C(=O)N[C@@H](Cc3cccnc3)C(=O)N(C)CC(=O)N[C@@H](CCCCNC(=O)COCCOCCNC(=O)COCCOCCNC(=O)CC[C@H](NC(=O)CCCCCCCCCCCCCCCCC(=O)O)C(=O)O)C(N)=O)CCOCC2)NC1=O [compound 81, 5cpaCO-r-Pen(3)-N-T-7MeW-K(Ac)-Pen(3)-AEF-2Nal-THP-E-N-3Pya-Sar-K(PEG2PEG2gEC18OH)-CONH2] ({Hexanoyl(6-NMe3+)}-[dR][Pen]NT[Trp(7-Me)]K(Ac)[Pen][AEF][2Nal][Thp]EN[3Pal][Sar]K([AEEA-AEEA-γGlu-C18 diacid])-NH2; disulfide 2-7) | 50 to 500 | < 0.5 |
| CC(=O)NCCCC[C@@H]1NC(=O)[C@H](Cc2c[nH]c3c(C)cccc23)NC(=O)[C@H]([C@@H](C)O)NC(=O)[C@H](CC(N)=O)NC(=O)[C@@H](NC(=O)[C@@H](CCCCNC(=O)COCCOCCNC(=O)COCCOCCNC(=O)CC[C@H](NC(=O)CCCCCCCCCCCCCCCCC(=O)O)C(=O)O)NC(C)=O)C(C)(C)SSC(C)(C)[C@@H](C(=O)N[C@@H](Cc2ccc(OCCN)cc2)C(=O)N[C@@H](Cc2ccc3ccccc3c2)C(=O)NC2(C(=O)N[C@@H](CCC(=O)O)C(=O)N[C@@H](CC(N)=O)C(=O)N[C@@H](Cc3cccnc3)C(=O)N(C)CC(N)=O)CCOCC2)NC1=O [compound 58, MeCO-k(PEG2PEG2gEC18OH)-Pen(3)-N-T-7MeW-K(Ac)-Pen(3)-AEF-2Nal-THP-E-N-3Pya-Sar-CONH2] (Ac-[dK]([AEEA-AEEA-γGlu-C18 diacid])[Pen]NT[Trp(7-Me)]K(Ac)[Pen][AEF][2Nal][Thp]EN[3Pal][Sar]-NH2; disulfide 2-7) | 50 to 500 | < 0.5 |
| Cc1cccc2c(C[C@@H]3NC(=O)[C@H]([C@@H](C)O)NC(=O)[C@H](CC(=O)N(C)C)NC(=O)[C@@H](NC(=O)CCOCCOCCOCCOCC[N+](C)(C)C)C(C)(C)SSC(C)(C)[C@@H](C(=O)NC(Cc4ccc(OCCN)cc4)C(=O)N[C@@H](Cc4ccc5ccccc5c4)C(=O)NC4(C(=O)N[C@@H](CCC(=O)O)C(=O)N[C@@H](CC(N)=O)C(=O)N[C@@H](Cc5cccnc5)C(=O)N(C)[C@@H](CCCCNC(=O)COCCOCCNC(=O)COCCOCCNC(=O)CC[C@H](NC(=O)CCCCCCCCCCCCCCCCC(=O)O)C(=O)O)C(N)=O)CCOCC4)NC(=O)[C@H](CCN(C)C(=O)CCOCCOCCOCCOCC[N+](C)(C)C)NC3=O)c[nH]c12 (stereo partly shown) [compound 153, cPEG5aCO-Pen(3)-N(N(Me)2)-T-7MeW-Dab(NMecPEG5a)-Pen(3)-AEF-2Nal-THP-E-N-3Pya-NMeK(PEG2PEG2gEC18OH)-CONH2] ({Me3N+CH2CH2(OCH2CH2)4CO}-[Pen]D(NMe2)T[Trp(7-Me)][X6](Me3N+CH2CH2(OCH2CH2)4CO)[Pen][ξAEF][2Nal][Thp]EN[3Pal][NMeK]([AEEA-AEEA-γGlu-C18 diacid])-NH2; disulfide 1-6) | 50 to 500 | < 0.5 |
| CC(=O)NCCCC[C@@H]1NC(=O)[C@H](Cc2c[nH]c3c(C)cccc23)NC(=O)[C@H]([C@@H](C)O)NC(=O)[C@H](CC(N)=O)NC(=O)[C@@H](NC(C)=O)C(C)(C)SSC(C)(C)[C@@H](C(=O)C[C@@H](Cc2ccc(OCCN)cc2)C(=O)N[C@@H](Cc2ccc3ccccc3c2)C(=O)NC2(C(=O)N[C@@H](CCCCNC(=O)COCCOCCNC(=O)COCCOCCNC(=O)CC[C@H](NC(=O)CCCCCCCCCCCCCCCCC(=O)O)C(=O)O)C(=O)N[C@@H](CC(N)=O)C(=O)N[C@@H](Cc3cccnc3)C(=O)N(C)CC(=O)NCCOCCOCC[N+](C)(C)C)CCOCC2)NC1=O [compound 64, MeCO-Pen(3)-N-T-7MeW-K(Ac)-Pen(3)-AEF-2Nal-THP-K(PEG2PEG2gEC18OH)-N-3Pya-Sar-CONH(PEG3a)] (I: [2Nal][Thp]K([AEEA-AEEA-γGlu-C18 diacid])N[3Pal][Sar]-{NH(CH2CH2O)2CH2CH2NMe3+} / II: Ac-[Pen]NT[Trp(7-Me)]K(Ac); linker I:N-II:1-II:C via X19) | ≥ 500 | 0.5 to 5 |
| CC(=O)NCCCC[C@@H]1NC(=O)[C@H](Cc2c[nH]c3c(C)cccc23)NC(=O)[C@H]([C@@H](C)O)NC(=O)[C@H](CC(N)=O)NC(=O)[C@@H](NC(C)=O)C(C)(C)SSC(C)(C)[C@@H](C(=O)N[C@@H](Cc2ccc(OCCN)cc2)C(=O)N[C@@H](Cc2ccc3ccccc3c2)C(=O)NC2(C(=O)N[C@@H](CCCCNC(C)=O)C(=O)N[C@@H](CC(N)=O)C(=O)N[C@@H](Cc3cccnc3)C(=O)N(C)CC(=O)N[C@@H](CCCCNC(=O)CCOCCOCCOCCOCCOCCOCCOCCOCCOCCOCCOCCOCCNC(=O)CC[C@H](NC(=O)CCCCCCCCCCCCCCCCC(=O)O)C(=O)O)C(N)=O)CCOCC2)NC1=O [compound 102, MeCO-Pen(3)-N-T-7MeW-K(Ac)-Pen(3)-AEF-2Nal-THP-K(Ac)-N-3Pya-Sar-K(PEG12gEC18OH)-CONH2] | < 50 | < 0.5 |

Now from value to compound, other results behind:

| IC50 [1] [nM] | Compound | IC50 [2] [nM] |
| --- | --- | --- |
| 50 to 500 | CC(=O)NCCCC[C@@H]1NC(=O)[C@H](Cc2c[nH]c3c(C)cccc23)NC(=O)[C@H]([C@@H](C)O)NC(=O)[C@H](CC(N)=O)NC(=O)[C@@H](NC(C)=O)C(C)(C)SSC(C)(C)[C@@H](C(=O)N[C@@H](Cc2ccc(OCCN)cc2)C(=O)N[C@@H](Cc2ccc3ccccc3c2)C(=O)NC2(C(=O)N[C@@H](CCC(=O)O)C(=O)N[C@@H](CC(N)=O)C(=O)N[C@@H](Cc3cccnc3)C(=O)N(C)CC(=O)N[C@@H](CCCCNC(=O)COCCOCCNC(=O)COCCOCCNC(=O)CC[C@H](NC(=O)CCCCCCCCCCCCCCCCC(=O)O)C(=O)O)C(N)=O)CCOCC2)NC1=O [compound 160, cPEG3aCO-r-Pen(3)-N-T-7MeW-K(Ac)-Pen(3)-AEF-2Nal-THP-E-N-3Pya-Sar-K(PEG2PEG2gEC18OH)-CONH2] | < 0.5 |
| < 50 | CC(=O)NCCCC[C@@H]1NC(=O)[C@H](Cc2c[nH]c3c(C)cccc23)NC(=O)[C@H]([C@@H](C)O)NC(=O)[C@H](CC(N)=O)NC(=O)[C@@H](NC(C)=O)C(C)(C)SSC(C)(C)[C@@H](C(=O)N[C@@H](Cc2ccc(OCCN)cc2)C(=O)N[C@@H](Cc2ccc3ccccc3c2)C(=O)NC2(C(=O)N[C@@H](CCC(=O)O)C(=O)N[C@@H](CC(N)=O)C(=O)N[C@@H](Cc3cccnc3)C(=O)N(C)CC(=O)N[C@@H](CCCCNC(=O)CCOCCOCCOCCOCCOCCOCCOCCOCCOCCOCCOCCOCCNC(=O)CC[C@H](NC(=O)CCCCCCCCCCCCCCCCCCC(=O)O)C(=O)O)C(N)=O)CCOCC2)NC1=O [compound 103, MeCO-Pen(3)-N-T-7MeW-K(Ac)-Pen(3)-AEF-2Nal-THP-E-N-3Pya-Sar-K(PEG12gEC20OH)-CONH2] | < 0.5 |
| 50 to 500 | CC(=O)NCCCC[C@@H]1NC(=O)[C@H](Cc2c[nH]c3c(C)cccc23)NC(=O)[C@H]([C@@H](C)O)NC(=O)[C@H](CC(N)=O)NC(=O)[C@@H](NC(=O)[C@@H](CCCNC(=N)N)NC(=O)CCC(=O)N[C@H](CC(=O)O)C[N+](C)(C)C)C(C)(C)SSC(C)(C)[C@@H](C(=O)N[C@@H](Cc2ccc(OCCN)cc2)C(=O)N[C@@H](Cc2ccc3ccccc3c2)C(=O)NC2(C(=O)N[C@@H](CCCCNC(=O)COCCOCCNC(=O)COCCOCCNC(=O)CC[C@H](NC(=O)CCCCCCCCCCCCCCCCC(=O)O)C(=O)O)C(=O)N[C@@H](CC(N)=O)C(=O)N[C@@H](Cc3ccccn3)C(=O)N(C)CC(N)=O)CCOCC2)NC1=O [compound 49, succiniccarn-r-Pen(3)-N-T-7MeW-K(Ac)-Pen(3)-AEF-2Nal-THP-K(PEG2PEG2gEC18OH)-N-3Pya-Sar-CONH2] ({X2-Suc}-[dR][Pen]NT[Trp(7-Me)]K(Ac)[Pen][AEF][2Nal][Thp]K([AEEA-AEEA-γGlu-C18 diacid])N[2Pal][Sar]-NH2; disulfide 2-7) | < 0.5 |
